Assay results published in US20250122529A1, “POLYCISTRONIC VECTORS FOR CELL-BASED THERAPIES” (Sana Biotechnology, Inc., priority 2021, published 2025).

Assays:
CD47-HSVtk clones [1] = assay: HSVtk kill curve with GCV (flow cytometry with counting beads); type: cell-based; details: various amounts of GCV; after three days
From the text: Calculated IC50 and R square (R^2) values for each clone are also shown.

control clone = assay: GCV toxicity in control clone; type: cell-based; details: tested dose range
CD47-HSVtk clones [2] = details: range reported in literature; IC50s in CD47-HSVtk clones generally comparable; cited from earlier work
[3] = test system: CyD-CD47 clones 2-G09 and 2-G11; assay: CyD kill curve with 5-FC (cell count); type: cell-based
From the text: Hollow triangles represent iPSCs; filled triangles represent differentiated cells.
The bicistronic vector was used to transduce induced pluripotent stem cells (iPSCs), which were then allowed to differentiate. Differentiation of CyD-CD47-expressing clones in 2D was not affected by safety switch expression (data not shown here).

CD22 = CD22 (Homo sapiens, UniProt P20273); details: affinity matured variant; read-out: CD22 binding affinity; cited from earlier work

Question: For `Nc1nc(O)c2ncn(COC(CO)CO)c2n1` [GCV, ganciclovir], which “HSVtk killing (viable cell count %)” value (CD47-HSVtk clones [1]) is on record?
Answer: dose-response HSVtk killing was achieved

Question: What about the GCV toxicity (control clone) of the same molecule?
Answer: no GCV toxicity

Question: And the IC50 (CD47-HSVtk clones [2])?
Answer: 10 to 100 nM

Question: What does the source list for `Nc1nc(=O)[nH]cc1F` [Construct 5-FC, 5-fluorocytosine]?
Answer: killing ([3]; CyD in the presence of 5-FC, differentiated cells, clones 2-G09 and 2-G11): more than 99%; IC50 ([3]; differentiated cells relative to iPSCs): comparable IC50s relative to iPSCs

B1: m971-L7: affinity matured variant of m971 (protein)
scFv: QVQLQQSGPGMVKPSQTLSLTCAISGDSVSSNSVAWNWIRQSPSRGLEWLGRTYYRSTWYNDYAVSMKSRITINPDTNKNQFSLQLNSVTPEDTAVYYCAREVTGDLEDAFDIWGQGTMVTVSSGGGGSGGGGSGGGGSDIQMIQSPSSLSASVGDRVTITCRASQTIWSYLNWYRQRPGEAPNLLIYAASSLQSGVPSRFSGRGSGTDFTLTISSLQAEDFATYYCQQSYSIPQTFGQGTKLEIK
modifications: Synthetic: Anti-CD22 m971-L7 scFv entire sequence, with 3xG4S linker
Question: For B1, which Kd (CD22) is on record?
Answer: < 0.05 nM
